# Experimental data taken from the supplement of paper PMC10307832.
# Legend:
# Assay in all cases: relative viability (nuclei count vs DMSO), 5 days (fraction); higher = more cells survive
# IU1-47 + Bortezomib = compound: CC1=CC(=C(N1C2=CC=C(C=C2)Cl)C)C(=O)CN3CCCCC3 [IU1-47] + CC(C)C[C@H](NC(=O)[C@H](Cc1ccccc1)NC(=O)c1cnccn1)B(O)O [Bortezomib] (partner 0.002 µM)
# Procedure, shortened: (§1)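 Lung cancer cell lines in 1536-well plates got either a single drug or a fixed anchor-drug dose together with five library-drug doses (not always all listed) in √10 steps, by pin tool, on the day after seeding. Nuclei were counted after 5 days, and relative viability is the treated-to-vehicle ratio of nuclei counts. Values are medians of duplicate plates.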
# FG-4592 + Luminespib = compound: Cc1nc(C(=O)NCC(=O)O)c(O)c2ccc(Oc3ccccc3)cc12 [FG-4592] + CCNC(=O)c1noc(-c2cc(C(C)C)c(O)cc2O)c1-c1ccc(CN2CCOCC2)cc1 [Luminespib] (partner 0.01 µM)
# Procedure, shortened: as §1
# FG-4592 + Dasatinib = compound: Cc1nc(C(=O)NCC(=O)O)c(O)c2ccc(Oc3ccccc3)cc12 [FG-4592] + Cc1nc(Nc2ncc(C(=O)Nc3c(C)cccc3Cl)s2)cc(N2CCN(CCO)CC2)n1 [Dasatinib] (partner 0.075 µM)
# Procedure, shortened: as §1
# IU1-47 + Decitabine = compound: CC1=CC(=C(N1C2=CC=C(C=C2)Cl)C)C(=O)CN3CCCCC3 [IU1-47] + Nc1ncn([C@H]2C[C@H](O)[C@@H](CO)O2)c(=O)n1 [Decitabine] (partner 2 µM)
# Procedure, shortened: as §1
Cell Line,relative viability (IU1-47 + Bortezomib; first compound 0.08 µM),relative viability (IU1-47 + Bortezomib; first compound 0.253 µM),relative viability (IU1-47 + Bortezomib; first compound 0.8 µM),relative viability (IU1-47 + Bortezomib; first compound 2.53 µM),relative viability (IU1-47 + Bortezomib; first compound 8 µM),relative viability (FG-4592 + Luminespib; first compound 0.08 µM),relative viability (FG-4592 + Luminespib; first compound 0.253 µM),relative viability (FG-4592 + Luminespib; first compound 0.8 µM),relative viability (FG-4592 + Luminespib; first compound 2.53 µM),relative viability (FG-4592 + Luminespib; first compound 8 µM),relative viability (FG-4592 + Dasatinib; first compound 0.08 µM),relative viability (FG-4592 + Dasatinib; first compound 0.253 µM),relative viability (FG-4592 + Dasatinib; first compound 0.8 µM),relative viability (FG-4592 + Dasatinib; first compound 2.53 µM),relative viability (FG-4592 + Dasatinib; first compound 8 µM),relative viability (IU1-47 + Decitabine; first compound 0.08 µM),relative viability (IU1-47 + Decitabine; first compound 0.253 µM),relative viability (IU1-47 + Decitabine; first compound 0.8 µM),relative viability (IU1-47 + Decitabine; first compound 2.53 µM),relative viability (IU1-47 + Decitabine; first compound 8 µM)
NCI-H1563,0.822,0.831,0.885,0.775,0.552,0.552,0.528,0.537,0.534,0.535,0.465,0.465,0.397,0.466,0.44,,,,,
NCI-H1623,,,,,,0.466,0.547,0.409,0.492,0.415,0.505,0.555,0.446,0.486,0.468,,,,,
NCI-H1648,,,,,,,,,,,,,,,,0.546,0.496,0.664,0.387,0.444
NCI-H1703,0.278,0.354,0.273,0.403,0.504,,,,,,,,,,,,,,,
NCI-H1793,,,,,,0.155,0.227,,0.157,0.185,0.37,0.311,,0.354,0.328,0.53,,0.538,0.507,0.426
NCI-H1944,,,,,,0.762,0.716,0.728,0.891,0.763,0.251,0.207,0.177,0.199,0.202,0.446,0.474,0.419,0.426,0.388
NCI-H2170,,,,,,0.653,0.62,0.538,0.606,0.501,0.592,0.478,0.412,0.59,0.497,0.516,0.529,0.498,0.482,0.555
NCI-H2228,1.25,0.922,0.949,1.1,0.932,0.151,0.181,0.174,0.113,0.16,0.569,0.411,0.548,0.475,0.489,,,,,
NCI-H2342,,,,,,0.674,0.71,0.576,0.783,0.537,0.312,0.281,0.316,0.341,0.311,0.81,0.766,0.755,0.688,0.747
SK-MES-1,,,,,,0.837,0.721,0.683,0.794,0.785,0.534,0.434,0.351,0.365,0.34,0.329,0.405,0.3,0.409,0.38
SW 900,,,,,,0.168,0.167,0.174,0.174,0.165,0.889,0.57,0.444,0.55,0.461,0.414,,0.447,0.452,0.353
